In the supplement of paper PMC13380429:

Assays:
Settings in all cases: 72 h
[1] = test system: Vero E6; assay: cell viability relative to DMSO; higher = less toxic
[2] = test system: Caco-2; assay: as above
[3] = test system: HepG2; assay: as above
[4] = test system: U2OS; assay: as above
[5] = test system: Calu-3; assay: as above
[6] = test system: Vero E6; assay: drug sensitivity score (DSS) for viability; higher = more toxic; extreme values may be limits of the assay
[7] = test system: Caco-2; assay: as above
[8] = test system: HepG2; assay: as above
[9] = test system: U2OS; assay: as above
[10] = test system: Calu-3; assay: as above
[11] = test system: Vero E6; assay: relative viability EC50 (midpoint between 100% and the lowest measured viability); higher = less toxic
[12] = test system: Caco-2; assay: as above
[13] = test system: HepG2; assay: as above
[14] = test system: U2OS; assay: as above
[15] = test system: Calu-3; assay: as above

## O=C(NCCN1CCC(n2c(=O)[nH]c3ccccc32)CC1)c1cc2cc(F)ccc2[nH]1 [FIPI]
[1]; 1 nM
  cell viability: 95%
[1]; 10 nM
  cell viability: 95.9%
[1]; 100 nM
  cell viability: 99%
[1]; 1000 nM
  cell viability: 96.6%
[1]; 10000 nM
  cell viability: 103%
[2]; 1 nM
  cell viability: 95.7%
[2]; 10 nM
  cell viability: 101%
[2]; 100 nM
  cell viability: 100%
[2]; 1000 nM
  cell viability: 101%
[2]; 10000 nM
  cell viability: 106%
[3]; 1 nM
  cell viability: 90.7%
[3]; 10 nM
  cell viability: 110%
[3]; 100 nM
  cell viability: 98.2%
[3]; 1000 nM
  cell viability: 93.7%
[3]; 10000 nM
  cell viability: 91.1%
[4]; 1 nM
  cell viability: 97%
[4]; 10 nM
  cell viability: 94%
[4]; 100 nM
  cell viability: 100%
[4]; 1000 nM
  cell viability: 97.4%
[4]; 10000 nM
  cell viability: 94.8%
[5]; 1 nM
  cell viability: 92.2%
[5]; 10 nM
  cell viability: 101%
[5]; 100 nM
  cell viability: 99.8%
[5]; 1000 nM
  cell viability: 98%
[5]; 10000 nM
  cell viability: 96.8%
[6]
  drug sensitivity score: 0
[7]
  drug sensitivity score: 0
[8]
  drug sensitivity score: 0
[9]
  drug sensitivity score: 0
[10]
  drug sensitivity score: 0
[11]
  relative viability EC50: > 10 µM
[12]
  relative viability EC50: > 10 µM
[13]
  relative viability EC50: > 10 µM
[14]
  relative viability EC50: > 10 µM
[15]
  relative viability EC50: > 10 µM

## C/C(O)=C(\C#N)C(=O)Nc1cc(Br)ccc1Br [LFM-A13]
[1]; 1 nM
  cell viability: 112%
[1]; 10 nM
  cell viability: 80.5%
[1]; 100 nM
  cell viability: 99%
[1]; 1000 nM
  cell viability: 96.3%
[1]; 10000 nM
  cell viability: 105%
[2]; 1 nM
  cell viability: 99.6%
[2]; 10 nM
  cell viability: 99.5%
[2]; 100 nM
  cell viability: 90.1%
[2]; 1000 nM
  cell viability: 100%
[2]; 10000 nM
  cell viability: 92.1%
[3]; 1 nM
  cell viability: 105%
[3]; 10 nM
  cell viability: 99.7%
[3]; 100 nM
  cell viability: 99.5%
[3]; 1000 nM
  cell viability: 99%
[3]; 10000 nM
  cell viability: 101%
[4]; 1 nM
  cell viability: 102%
[4]; 10 nM
  cell viability: 103%
[4]; 100 nM
  cell viability: 97.3%
[4]; 1000 nM
  cell viability: 104%
[4]; 10000 nM
  cell viability: 96.4%
[5]; 1 nM
  cell viability: 92.8%
[5]; 10 nM
  cell viability: 99.6%
[5]; 100 nM
  cell viability: 103%
[5]; 1000 nM
  cell viability: 100%
[5]; 10000 nM
  cell viability: 94.7%
[6]
  drug sensitivity score: 0
[7]
  drug sensitivity score: 0
[8]
  drug sensitivity score: 0
[9]
  drug sensitivity score: 0
[10]
  drug sensitivity score: 0
[11]
  relative viability EC50: > 10 µM
[12]
  relative viability EC50: > 10 µM
[13]
  relative viability EC50: > 10 µM
[14]
  relative viability EC50: > 10 µM
[15]
  relative viability EC50: > 10 µM

## O=C(NCCN1CCCCC1)c1ccc(I)cc1 [N-[2-(piperidinylamino)ethyl]-4-iodobenzamide]
[1]; 1 nM
  cell viability: 101%
[1]; 10 nM
  cell viability: 99.6%
[1]; 100 nM
  cell viability: 96.5%
[1]; 1000 nM
  cell viability: 99.3%
[1]; 10000 nM
  cell viability: 93.4%
[2]; 1 nM
  cell viability: 96.4%
[2]; 10 nM
  cell viability: 99.6%
[2]; 100 nM
  cell viability: 105%
[2]; 1000 nM
  cell viability: 92.1%
[2]; 10000 nM
  cell viability: 91.2%
[3]; 1 nM
  cell viability: 103%
[3]; 10 nM
  cell viability: 91.8%
[3]; 100 nM
  cell viability: 103%
[3]; 1000 nM
  cell viability: 99.1%
[3]; 10000 nM
  cell viability: 91.3%
[4]; 1 nM
  cell viability: 103%
[4]; 10 nM
  cell viability: 97.5%
[4]; 100 nM
  cell viability: 97%
[4]; 1000 nM
  cell viability: 91.3%
[4]; 10000 nM
  cell viability: 95.5%
[5]; 1 nM
  cell viability: 101%
[5]; 10 nM
  cell viability: 89.4%
[5]; 100 nM
  cell viability: 94.6%
[5]; 1000 nM
  cell viability: 92.7%
[5]; 10000 nM
  cell viability: 116%
[6]
  drug sensitivity score: 0
[7]
  drug sensitivity score: 0
[8]
  drug sensitivity score: 0
[9]
  drug sensitivity score: 0
[10]
  drug sensitivity score: 0
[11]
  relative viability EC50: > 10 µM
[12]
  relative viability EC50: > 10 µM
[13]
  relative viability EC50: > 10 µM
[14]
  relative viability EC50: > 10 µM
[15]
  relative viability EC50: > 10 µM
